Target: T1, thioredoxin reductase (TrxR) (Rattus norvegicus, UniProt O89049)
T1 sequence (O89049 1-499): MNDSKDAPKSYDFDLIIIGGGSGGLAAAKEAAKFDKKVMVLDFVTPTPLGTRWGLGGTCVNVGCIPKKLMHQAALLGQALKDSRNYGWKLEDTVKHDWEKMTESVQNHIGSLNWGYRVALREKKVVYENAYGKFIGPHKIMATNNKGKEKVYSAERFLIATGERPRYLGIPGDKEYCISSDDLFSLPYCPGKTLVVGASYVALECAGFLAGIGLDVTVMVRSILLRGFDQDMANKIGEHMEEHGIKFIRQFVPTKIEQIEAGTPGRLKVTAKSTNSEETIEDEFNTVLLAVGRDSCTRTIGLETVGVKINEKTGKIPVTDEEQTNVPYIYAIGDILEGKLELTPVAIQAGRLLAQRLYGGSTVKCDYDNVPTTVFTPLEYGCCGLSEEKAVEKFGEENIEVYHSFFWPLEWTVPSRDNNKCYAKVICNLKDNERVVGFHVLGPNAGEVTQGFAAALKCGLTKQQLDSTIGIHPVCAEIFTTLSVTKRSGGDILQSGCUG
Test: DTNB assay with isolated TrxR, % inhibition at […]
Format: biochemical
Details: read-out: Isolated TrxR (Inhibition %)

Row | Structure (SMILES) | inhibition at 50 µM
1 | O=C(/C=C/c1ccc(O)cc1)c1ccc(O)cc1O [compound 4, Isoliquiritigenin] | 76.9%
2 | C=C1C(=O)O[C@@H]2C[C@@]3(C)CCCC(=C)[C@@H]3C[C@H]12 [compound 5, Isoalantolactone] | 79.7%

— PMC9168183 (Redox Biology, 2022)
